Legend:
[1] = target: c-Kit kinase (Homo sapiens, UniProt P10721); test: c-Kit AlphaScreen kinase assay; format: biochemical
Protocol: (§1) Kinase activity and compound inhibition are investigated using one or more assay formats. The ATP concentrations for each assay are selected to be close to the Michaelis-Menten constant (KM) for each individual kinase. Dose-response experiments are performed at 10 different inhibitor concentrations in a 384-well plate format. […] Exemplary kinase assays are described below. KDR Assay
c-Kit biochemical activity was assessed using AlphaScreen™ (Perkin Elmer) technology, described above. Test compounds, ATP, biotinylated poly(Glu, Tyr) and c-Kit kinase were combined in a volume of 20 μL in a 384-well white, medium binding microtiter plate (Greiner). Reaction mixtures were incubated for 1 hr at ambient temperature. Reactions were quenched by addition of 10 uL of […] AlphaScreen bead suspension containing 75 mM Hepes, pH 7.4, 300 mM NaCl, 120 mM EDTA, 0.3% BSA and 0.03% Tween-20. After 16 hr incubation at ambient temperature plates were read using an AlphaQuest reader (Perkin Elmer).

[2] = target: EphA2 (Homo sapiens, UniProt P29317); test: Kinase assay, EphA2 (33P-ATP incorporation or luciferase-coupled ATP consumption); format: biochemical
Chain of EphA2 (P29317 24-976, species assumed): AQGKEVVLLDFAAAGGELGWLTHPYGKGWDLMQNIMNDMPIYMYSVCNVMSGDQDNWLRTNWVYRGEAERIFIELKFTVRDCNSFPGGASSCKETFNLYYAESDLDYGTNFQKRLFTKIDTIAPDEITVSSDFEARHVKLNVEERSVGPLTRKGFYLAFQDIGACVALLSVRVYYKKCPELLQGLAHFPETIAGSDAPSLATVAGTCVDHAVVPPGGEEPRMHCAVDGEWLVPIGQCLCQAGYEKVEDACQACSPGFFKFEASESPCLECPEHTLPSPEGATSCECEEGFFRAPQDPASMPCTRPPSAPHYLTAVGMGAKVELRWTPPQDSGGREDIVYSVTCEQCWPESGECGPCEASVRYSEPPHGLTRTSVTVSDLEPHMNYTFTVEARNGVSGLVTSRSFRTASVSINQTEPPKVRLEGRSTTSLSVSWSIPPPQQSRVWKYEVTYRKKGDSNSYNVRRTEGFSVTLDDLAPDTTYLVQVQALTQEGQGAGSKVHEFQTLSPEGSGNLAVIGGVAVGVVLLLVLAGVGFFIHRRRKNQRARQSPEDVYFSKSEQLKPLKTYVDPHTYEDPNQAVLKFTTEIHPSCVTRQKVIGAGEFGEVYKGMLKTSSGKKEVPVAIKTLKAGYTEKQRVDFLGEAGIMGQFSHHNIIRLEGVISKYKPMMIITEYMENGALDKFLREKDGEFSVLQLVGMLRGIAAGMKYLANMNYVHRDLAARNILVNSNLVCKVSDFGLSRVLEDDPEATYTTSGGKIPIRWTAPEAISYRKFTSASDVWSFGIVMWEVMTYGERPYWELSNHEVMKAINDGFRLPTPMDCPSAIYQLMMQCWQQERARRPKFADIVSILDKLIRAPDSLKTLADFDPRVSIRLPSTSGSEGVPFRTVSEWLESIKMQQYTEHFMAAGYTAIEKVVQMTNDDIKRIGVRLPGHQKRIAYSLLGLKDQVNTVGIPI
How it was run: (§2)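 Two formats used: luciferase/luciferin chemiluminescence of ATP consumed with pEY, or radiometric 33P transfer to plate-bound MBP or pEY read by scintillation.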

[3] = target: EGFR (Homo sapiens, UniProt P00533); test: Kinase assay, EGFR (33P-ATP incorporation or luciferase-coupled ATP consumption); format: biochemical
Chain of EGFR (P00533 25-1210, species assumed): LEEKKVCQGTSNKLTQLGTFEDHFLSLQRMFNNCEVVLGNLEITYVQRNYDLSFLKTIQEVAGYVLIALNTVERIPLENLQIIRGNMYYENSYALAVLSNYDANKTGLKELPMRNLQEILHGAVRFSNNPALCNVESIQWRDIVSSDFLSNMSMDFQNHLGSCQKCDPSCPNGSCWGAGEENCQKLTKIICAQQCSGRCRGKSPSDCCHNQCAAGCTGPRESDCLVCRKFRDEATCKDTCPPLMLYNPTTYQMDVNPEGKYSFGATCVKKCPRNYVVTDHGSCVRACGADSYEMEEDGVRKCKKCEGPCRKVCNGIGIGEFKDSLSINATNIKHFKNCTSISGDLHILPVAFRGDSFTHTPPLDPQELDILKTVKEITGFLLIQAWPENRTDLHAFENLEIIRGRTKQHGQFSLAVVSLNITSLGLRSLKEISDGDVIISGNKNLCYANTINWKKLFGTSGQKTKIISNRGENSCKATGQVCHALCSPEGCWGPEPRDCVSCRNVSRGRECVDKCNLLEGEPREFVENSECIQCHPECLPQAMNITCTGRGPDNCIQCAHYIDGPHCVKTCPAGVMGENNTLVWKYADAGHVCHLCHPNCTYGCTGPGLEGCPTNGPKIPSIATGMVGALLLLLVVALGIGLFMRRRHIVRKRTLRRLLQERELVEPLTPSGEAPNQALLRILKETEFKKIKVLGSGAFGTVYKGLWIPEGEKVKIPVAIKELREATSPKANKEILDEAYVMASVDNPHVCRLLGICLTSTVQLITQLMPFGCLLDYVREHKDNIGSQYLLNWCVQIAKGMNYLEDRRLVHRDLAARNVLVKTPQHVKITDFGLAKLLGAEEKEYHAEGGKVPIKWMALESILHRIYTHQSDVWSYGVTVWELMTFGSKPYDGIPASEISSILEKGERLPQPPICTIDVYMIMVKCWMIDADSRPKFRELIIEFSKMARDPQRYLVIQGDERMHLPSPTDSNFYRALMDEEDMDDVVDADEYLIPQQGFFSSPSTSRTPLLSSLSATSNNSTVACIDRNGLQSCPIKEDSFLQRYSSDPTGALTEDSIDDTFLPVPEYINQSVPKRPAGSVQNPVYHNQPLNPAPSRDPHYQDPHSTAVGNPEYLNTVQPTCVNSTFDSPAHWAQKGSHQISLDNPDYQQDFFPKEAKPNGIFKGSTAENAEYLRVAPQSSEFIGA
How it was run: as §2

[4] = target: Fyn (Homo sapiens, UniProt P06241); test: Kinase assay, Fyn; format: biochemical
Protocol: as §1

[5] = target: IRK (Homo sapiens, UniProt P06213); test: Kinase assay, IRK; format: biochemical
Chain of IRK (P06213 28-1382): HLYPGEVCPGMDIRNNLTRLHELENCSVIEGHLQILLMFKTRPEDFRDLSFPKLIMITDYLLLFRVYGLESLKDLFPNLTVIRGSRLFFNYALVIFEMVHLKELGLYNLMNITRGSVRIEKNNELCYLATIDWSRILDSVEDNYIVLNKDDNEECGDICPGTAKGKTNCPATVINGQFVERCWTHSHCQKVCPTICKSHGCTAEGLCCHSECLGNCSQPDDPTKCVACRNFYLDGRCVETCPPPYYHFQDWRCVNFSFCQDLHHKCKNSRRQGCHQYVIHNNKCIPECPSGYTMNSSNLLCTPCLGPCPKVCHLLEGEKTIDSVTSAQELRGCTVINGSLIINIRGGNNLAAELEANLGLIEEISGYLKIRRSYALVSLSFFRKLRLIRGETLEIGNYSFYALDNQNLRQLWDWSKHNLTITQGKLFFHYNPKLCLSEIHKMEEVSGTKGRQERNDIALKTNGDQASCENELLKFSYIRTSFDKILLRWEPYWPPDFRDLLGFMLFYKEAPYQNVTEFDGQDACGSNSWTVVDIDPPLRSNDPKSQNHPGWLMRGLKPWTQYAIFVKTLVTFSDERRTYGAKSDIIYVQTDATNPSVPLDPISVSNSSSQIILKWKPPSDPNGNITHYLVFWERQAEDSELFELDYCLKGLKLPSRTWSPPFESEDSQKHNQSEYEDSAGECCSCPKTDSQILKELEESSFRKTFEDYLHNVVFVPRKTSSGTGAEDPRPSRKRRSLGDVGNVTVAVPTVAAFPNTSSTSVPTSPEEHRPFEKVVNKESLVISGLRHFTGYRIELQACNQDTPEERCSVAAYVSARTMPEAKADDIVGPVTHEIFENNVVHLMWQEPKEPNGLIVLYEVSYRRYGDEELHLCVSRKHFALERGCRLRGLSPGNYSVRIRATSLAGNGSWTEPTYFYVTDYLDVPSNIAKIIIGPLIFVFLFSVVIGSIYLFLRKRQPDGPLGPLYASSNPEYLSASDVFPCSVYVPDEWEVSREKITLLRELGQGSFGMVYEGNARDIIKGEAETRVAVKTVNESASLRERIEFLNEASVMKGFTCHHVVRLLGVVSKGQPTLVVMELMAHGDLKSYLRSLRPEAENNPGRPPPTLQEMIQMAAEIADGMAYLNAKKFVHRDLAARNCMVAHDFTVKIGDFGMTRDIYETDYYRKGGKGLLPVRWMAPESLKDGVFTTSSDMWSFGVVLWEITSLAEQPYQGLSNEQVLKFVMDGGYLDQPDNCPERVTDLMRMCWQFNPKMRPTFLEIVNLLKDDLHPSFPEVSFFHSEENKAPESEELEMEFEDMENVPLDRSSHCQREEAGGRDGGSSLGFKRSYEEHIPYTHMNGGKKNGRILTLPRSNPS
Protocol: as §1

[6] = target: T1, KDR (baculovirus expressed human KDR kinase domain D807-V1356) (Homo sapiens, UniProt P35968); test: biochemical
T1 construct: human KDR kinase domain D807-V1356; host or cells: baculovirus expression system
How it was run: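 Luciferase-coupled chemiluminescence quantifies ATP left after a 4 h room-temperature reaction of KDR kinase domain (D807–V1356, baculovirus-expressed human). ATP set close to KM; inhibitors tested at 10 concentrations.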

[7] = target: Flt-1 (Homo sapiens, UniProt P17948); test: Kinase assay, Flt-1 (33P-ATP incorporation or luciferase-coupled ATP consumption); format: biochemical; settings: read-out: Flt1 IC50
Chain of Flt-1 (P17948 27-1338, species assumed): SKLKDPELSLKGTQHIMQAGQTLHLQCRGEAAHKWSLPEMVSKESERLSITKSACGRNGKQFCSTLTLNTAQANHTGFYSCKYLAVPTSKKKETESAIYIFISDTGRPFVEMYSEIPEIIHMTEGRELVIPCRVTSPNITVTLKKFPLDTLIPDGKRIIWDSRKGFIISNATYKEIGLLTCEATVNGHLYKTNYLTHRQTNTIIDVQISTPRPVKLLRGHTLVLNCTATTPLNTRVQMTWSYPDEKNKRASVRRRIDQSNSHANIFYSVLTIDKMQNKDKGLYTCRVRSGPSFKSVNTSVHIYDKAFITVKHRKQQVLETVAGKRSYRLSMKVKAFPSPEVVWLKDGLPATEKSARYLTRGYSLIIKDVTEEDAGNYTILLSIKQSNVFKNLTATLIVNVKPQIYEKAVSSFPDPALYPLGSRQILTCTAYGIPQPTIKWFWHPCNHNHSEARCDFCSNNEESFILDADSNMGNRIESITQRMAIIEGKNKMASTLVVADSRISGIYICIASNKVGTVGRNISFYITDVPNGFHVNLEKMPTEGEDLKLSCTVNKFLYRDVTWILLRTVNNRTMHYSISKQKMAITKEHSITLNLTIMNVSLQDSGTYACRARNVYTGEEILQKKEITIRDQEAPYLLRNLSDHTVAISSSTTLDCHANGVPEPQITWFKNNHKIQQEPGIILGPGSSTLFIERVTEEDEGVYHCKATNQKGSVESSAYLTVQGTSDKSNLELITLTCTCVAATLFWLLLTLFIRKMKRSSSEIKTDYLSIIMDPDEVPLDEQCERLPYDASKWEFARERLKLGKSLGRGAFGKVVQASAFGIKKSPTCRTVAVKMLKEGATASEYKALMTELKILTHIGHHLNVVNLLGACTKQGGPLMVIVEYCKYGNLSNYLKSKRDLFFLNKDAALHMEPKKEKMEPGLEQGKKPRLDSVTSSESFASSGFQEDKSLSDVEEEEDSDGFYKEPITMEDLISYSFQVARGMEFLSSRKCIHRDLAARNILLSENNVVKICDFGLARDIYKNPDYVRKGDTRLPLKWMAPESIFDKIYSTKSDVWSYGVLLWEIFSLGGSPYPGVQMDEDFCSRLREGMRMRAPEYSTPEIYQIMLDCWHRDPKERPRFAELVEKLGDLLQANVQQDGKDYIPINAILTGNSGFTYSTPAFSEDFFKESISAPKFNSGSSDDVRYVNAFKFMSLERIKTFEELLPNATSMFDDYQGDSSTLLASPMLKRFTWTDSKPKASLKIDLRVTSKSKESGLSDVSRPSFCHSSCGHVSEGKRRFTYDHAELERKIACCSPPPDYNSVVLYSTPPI
Protocol: Kinase assays were performed by measurement of incorporation of γ-^33P ATP into immobilized myelin basic protein (MBP). […] Plates were washed 3× with 100 μl TBS. […] Compound dilutions were performed in DMSO and added to assay wells to a final DMSO concentration of 1%. Each data point was measured in duplicate, and at least two duplicate assays were performed for each individual compound determination. Enzyme was added to final concentrations of 10 nM or 20 nM, for example. A mixture of unlabeled ATP and γ-^33P ATP was added to start the reaction (2×10^6 cpm of γ-^33P ATP per well (3000 Ci/mmole) and either 10 μM or 30 μM unlabeled ATP, typically. The reactions were carried out for 1 hour at room temperature with shaking. Plates were washed 7× with TBS, followed by the addition of 50 μl/well scintillation fluid (Wallac). Plates were read using a Wallac Trilux counter. This is only one format of such assays, various other formats are possible, as known to one of ordinary skill in the art.
Tyrosine kinase activity is determined by 1) measurement of kinase-dependent ATP consumption by in the presence of a generic substrate such as, polyglutamic acid, tyrosine, 4:1 (pEY), by luciferase/luciferin-mediated chemiluminescence or; 2) incorporation of radioactive phosphate derived from ^33P-ATP into a generic substrate which has been adsorbed onto the well surface of polystyrene microtiter plates. Phosphorylated substrate products are quantified by scintillation spectrometry.
as §1

[8] = target: FGFR1 (Homo sapiens, UniProt P11362); test: Kinase assay, FGFR1 (33P-ATP incorporation or luciferase-coupled ATP consumption); format: biochemical
How it was run: as §2

[9] = target: PDGFR alpha (Homo sapiens, UniProt P16234); test: Kinase assay, PDGFR alpha (33P-ATP incorporation or luciferase-coupled ATP consumption); format: biochemical; settings: read-out: PDGF-R-A IC50
How it was run: as §2

COCCN1CCC(Nc2ccc3c(c2)/C(=C(\c2ccccc2)c2nc4ccccc4[nH]2)C(=O)N3)CC1 [Entry 24, (3Z)-3-[1H-benzimidazol-2-yl(phenyl)methylidene]-5-({1-[2-(methyloxy)ethyl]piperidin-4-yl}amino)-1,3-dihydro-2H-indol-2-one]
IC50 [1]: < 50 nM
IC50 [2]: 500 to 5000 nM
IC50 [3]: 50 to 500 nM
IC50 [4]: < 50 nM
IC50 [5]: 500 to 5000 nM

CCN1CCC(Nc2ccc3c(c2)/C(=C(\c2ccc(Cl)cc2)c2nc4ccccc4[nH]2)C(=O)N3)CC1 [Entry 45, (3Z)-3-[1H-benzimidazol-2-yl(4-chlorophenyl)methylidene]-5-[(1-ethylpiperidin-4-yl)amino]-1,3-dihydro-2H-indol-2-one]
IC50 [6]: < 50 nM
IC50 [2]: 500 to 5000 nM
IC50 [7]: < 50 nM
IC50 [3]: 50 to 500 nM
IC50 [8]: 50 to 500 nM
IC50 [9]: < 50 nM
IC50 [4]: < 50 nM
IC50 [5]: 500 to 5000 nM

COCCN1CCC(Nc2ccc3c(c2)/C(=C(\c2cccc(F)c2)c2nc4ccccc4[nH]2)C(=O)N3)CC1 [Entry 46, (3Z)-3-[1H-benzimidazol-2-yl(3-fluorophenyl)methylidene]-5-({1-[2-(methyloxy)ethyl]piperidin-4-yl}amino)-1,3-dihydro-2H-indol-2-one]
IC50 [6]: < 50 nM
IC50 [2]: 500 to 5000 nM
IC50 [7]: 50 to 500 nM
IC50 [3]: 50 to 500 nM
IC50 [8]: 50 to 500 nM
IC50 [9]: < 50 nM
IC50 [4]: < 50 nM
IC50 [5]: 500 to 5000 nM

COCCN1CCC(Nc2ccc3c(c2)/C(=C(\c2ccc(F)cc2)c2nc4ccccc4[nH]2)C(=O)N3)CC1 [Entry 47, (3Z)-3-[1H-benzimidazol-2-yl(4-fluorophenyl)methylidene]-5-({1-[2-(methyloxy)ethyl]piperidin-4-yl}amino)-1,3-dihydro-2H-indol-2-one]
IC50 [6]: < 50 nM
IC50 [2]: 500 to 5000 nM
IC50 [7]: 500 to 5000 nM
IC50 [3]: 500 to 5000 nM
IC50 [8]: 50 to 500 nM
IC50 [9]: < 50 nM
IC50 [4]: 50 to 500 nM
IC50 [5]: 500 to 5000 nM

CCN1CCC(Nc2ccc3c(c2)/C(=C(\c2cccc(Cl)c2)c2ncc[nH]2)C(=O)N3)CC1 [Entry 48, (3Z)-3-[(3-chlorophenyl)(1H-imidazol-2-yl)methylidene]-5-[(1-ethylpiperidin-4-yl)amino]-1,3-dihydro-2H-indol-2-one]
IC50 [6]: < 50 nM
IC50 [2]: 500 to 5000 nM
IC50 [7]: 50 to 500 nM
IC50 [3]: 50 to 500 nM
IC50 [8]: < 50 nM
IC50 [9]: < 50 nM
IC50 [4]: < 50 nM
IC50 [5]: > 5000 nM

CCN1CCC(Nc2ccc3c(c2)/C(=C(\c2ccc(C)c(F)c2)c2nc4ccccc4[nH]2)C(=O)N3)CC1 [Entry 50, (3Z)-3-[1H-benzimidazol-2-yl(3-fluoro-4-methylphenyl)methylidene]-5-{(1-ethylpiperidin-4-yl)amino]-1,3-dihydro-2H-indol-2-one]
IC50 [6]: < 50 nM
IC50 [2]: 500 to 5000 nM
IC50 [7]: < 50 nM
IC50 [3]: < 50 nM
IC50 [8]: < 50 nM
IC50 [9]: < 50 nM
IC50 [4]: < 50 nM
IC50 [5]: 500 to 5000 nM

CCN1CCC(Nc2ccc3c(c2)/C(=C(\c2ccc(F)c(Cl)c2)c2ncc[nH]2)C(=O)N3)CC1 [Entry 53, (3Z)-3-[(3-chloro-4-fluorophenyl) (1H-imidazol-2-yl)methylidene]-5-[(1-ethylpiperidin-4-yl)amino]-1,3-dihydro-2H-indol-2-one]
IC50 [6]: < 50 nM
IC50 [1]: < 50 nM
IC50 [2]: 500 to 5000 nM
IC50 [3]: 500 to 5000 nM
IC50 [8]: < 50 nM
IC50 [9]: < 50 nM
IC50 [4]: < 50 nM
IC50 [5]: > 5000 nM

CCN1CCC(Nc2ccc3c(c2)/C(=C(\c2ccc(F)c(F)c2)c2ncc[nH]2)C(=O)N3)CC1 [Entry 54, (3Z)-3-[(3,4-difluorophenyl)(1H-imidazol-2-yl)methylidene]-5-[(1-ethylpiperidin-4-yl)amino]-1,3-dihydro-2H-indol-2-one]
IC50 [6]: < 50 nM
IC50 [1]: 50 to 500 nM
IC50 [2]: 500 to 5000 nM
IC50 [3]: 500 to 5000 nM
IC50 [8]: < 50 nM
IC50 [9]: < 50 nM
IC50 [4]: < 50 nM
IC50 [5]: > 5000 nM

CCN1CCC(Nc2ccc3c(c2)/C(=C(\c2ccc(C(F)(F)F)cc2)c2ncc[nH]2)C(=O)N3)CC1 [Entry 60, (3Z)-5-[(1-ethylpiperidin-4-yl)amino]-3-{1H-imidazol-2-yl[4-(trifluoromethyl)phenyl]methylidene}-1,3-dihydro-2H-indol-2-one]
IC50 [6]: < 50 nM
IC50 [1]: 50 to 500 nM
IC50 [2]: 500 to 5000 nM
IC50 [3]: 500 to 5000 nM
IC50 [8]: < 50 nM
IC50 [9]: < 50 nM
IC50 [4]: < 50 nM
IC50 [5]: > 5000 nM

CCN1CCC(Nc2ccc3c(c2)/C(=C(\c2ccc(C(F)(F)F)c(F)c2)c2ncc[nH]2)C(=O)N3)CC1 [Entry 65, (3Z)-5-[(1-ethylpiperidin-4-yl)amino]-3-[[3-fluoro-4-(trifluoromethyl)phenyl](1H-imidazol-2-yl)methylidene]-1,3-dihydro-2H-indol-2-one]
IC50 [6]: < 50 nM
IC50 [1]: 50 to 500 nM
IC50 [2]: 500 to 5000 nM
IC50 [3]: 50 to 500 nM
IC50 [8]: < 50 nM
IC50 [9]: < 50 nM
IC50 [4]: < 50 nM
IC50 [5]: > 5000 nM

CCN1CCC(Nc2ccc3c(c2)/C(=C(\c2cc(F)cc(F)c2)c2ncc[nH]2)C(=O)N3)CC1 [Entry 73, (3Z)-3-[(3,5-difluorophenyl)(1H-imidazol-2-yl)methylidene]-5-[(1-ethylpiperidin-4-yl)amino]-1,3-dihydro-2H-indol-2-one]
IC50 [6]: < 50 nM
IC50 [1]: 50 to 500 nM
IC50 [2]: 500 to 5000 nM
IC50 [3]: 50 to 500 nM
IC50 [8]: < 50 nM
IC50 [9]: < 50 nM
IC50 [4]: < 50 nM
IC50 [5]: > 5000 nM

CCN1CCC(Nc2ccc3c(c2)/C(=C(/c2ncc[nH]2)c2ccc(C(F)(F)F)cc2F)C(=O)N3)CC1 [Entry 100, (3Z)-5-[(1-ethylpiperidin-4-yl)amino]-3-[[2-fluoro-4-(trifluoromethyl)phenyl] (1H-imidazol-2-yl)methylidene]-1,3-dihydro-2H-indol-2-one]
IC50 [6]: < 50 nM
IC50 [1]: < 50 nM
IC50 [2]: 500 to 5000 nM
IC50 [3]: 50 to 500 nM
IC50 [8]: < 50 nM
IC50 [9]: < 50 nM
IC50 [4]: < 50 nM
IC50 [5]: 500 to 5000 nM

CCN1CCC(Nc2ccc3c(c2)/C(=C(\c2ccc(C(F)(F)F)cc2)c2nc(C)c[nH]2)C(=O)N3)CC1 [Entry 101]
IC50 [6]: < 50 nM
IC50 [1]: 50 to 500 nM
IC50 [2]: 500 to 5000 nM
IC50 [3]: 50 to 500 nM
IC50 [8]: < 50 nM
IC50 [9]: < 50 nM
IC50 [4]: < 50 nM
IC50 [5]: 500 to 5000 nM

CCN1CCC(Nc2ccc3c(c2)/C(=C(\c2ccc(C(F)(F)F)c(F)c2)c2nc(C)c[nH]2)C(=O)N3)CC1 [Entry 103, (3Z)-5-[(1-ethylpiperidin-4-yl)amino]-3-[[3-fluoro-4-(trifluoromethyl)phenyl](4-methyl-1H-imidazol-2-yl)methylidene]-1,3-dihydro-2H-indol-2-one]
IC50 [6]: < 50 nM
IC50 [1]: 50 to 500 nM
IC50 [2]: 500 to 5000 nM
IC50 [3]: < 50 nM
IC50 [8]: < 50 nM
IC50 [4]: < 50 nM
IC50 [5]: 500 to 5000 nM

CCN1CCC(Nc2ccc3c(c2)/C(=C(\c2ccc(F)c(F)c2)c2nc(C)c[nH]2)C(=O)N3)CC1 [Entry 104, (3Z)-3-[(3,4-difluorophenyl)(4-methyl-1H-imidazol-2-yl)methylidene]-5-[(1-ethylpiperidin-4-yl)amino]-1,3-dihydro-2H-indol-2-one]
IC50 [6]: < 50 nM
IC50 [1]: 50 to 500 nM
IC50 [2]: 500 to 5000 nM
IC50 [3]: < 50 nM
IC50 [8]: < 50 nM
IC50 [9]: < 50 nM
IC50 [4]: < 50 nM
IC50 [5]: > 5000 nM

From US7626031B2, “Substituted 3-(diarylmethylene)indolin-2-ones and methods of their use” (Symphony Evolution, Inc., priority 2002, dated 2009)
